Results reported in PubChem BioAssay (NCI).
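Tested at 5 concentrations; 48 h exposure; 96-well plates; endpoints linearly interpolated, else capped at highest concentration. GI50: concentration for 50% inhibition of growth. TGI is the concentration that stops growth completely.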 *1 amine or outer side, *2 acyl side, *3 side chain or, on linkers, in order; H or OH if unused. Where a SMILES comes first, the peptide text is derived from it. Bridges are numbered along the chain shown (N, C = ends). [ ]: non-standard residue; d: D form. The star is where a group is joined. Phe(3-Me) = Cc1cccc(C[C@H](N)C(=O)O)c1; NH(4-Cl-2-F-phenyl) = Fc1cc(Cl)ccc1N*; Pro(4R-Me) = C[C@H]1CN[C@H](C(=O)O)C1; Hyp = O=C(O)[C@@H]1C[C@@H](O)CN1; aThr = C[C@H](O)[C@H](N)C(=O)O; Pip = O=C(O)[C@@H]1CCCCN1; CO = O=C([*:1])[*:2]

Columns and labels:
Experiment in all cases: inhibition of tumour cell growth, NCI panel, 48 h
[1] = system: UO-31 renal
[2] = system: LOX IMVI melanoma
[3] = system: U251 CNS
[4] = system: PC-3 prostate
[5] = system: T-47D breast
[6] = system: NCI/ADR-RES ovarian
[7] = system: NCI-H226 lung
[8] = system: ACHN renal

SMILES | GI50 [1] | TGI [1] | GI50 [2] | TGI [2] | GI50 [3] | TGI [3] | GI50 [4] | TGI [4] | GI50 [5] | TGI [5] | GI50 [6] | TGI [6] | GI50 [7] | TGI [7] | GI50 [8] | TGI [8]
COc1ccc(C(=O)c2cc(OC)c(OC)c(OC)c2)cc1O | 0.296 µM | > 100 µM | 0.0114 µM | > 100 µM | 0.0425 µM | > 100 µM | 0.0285 µM | > 100 µM | 26 µM | > 100 µM | 0.0118 µM | > 100 µM | 4.76 µM | > 100 µM | 0.0433 µM | > 100 µM
NC(=NC1CCCCCC1)c1ccc(N2CCN(c3ccc(C(N)=NC4CCCCCC4)cc3)CC2)cc1 | 33.7 µM | > 50 µM | 3.05 µM | 20.3 µM | 3.02 µM | 11.3 µM | 12.1 µM | > 50 µM | 15.2 µM | > 50 µM | > 50 µM | > 50 µM | 7.64 µM | 28.9 µM | 46.4 µM | > 50 µM
C=C1C(=O)O[C@@H]2C[C@@H](C)[C@@H]3[C@@H](OC4OC(COC(C)=O)C(O)C(O)C4O)CC(=O)[C@@]3(C)C[C@H]12 (stereo partly drawn) | – | 3.38 µM | – | 1.78 µM | – | 19.7 µM | – | 23.7 µM | – | 8.89 µM | – | 14.5 µM | – | 26.1 µM | – | 0.987 µM
c1cncc(C(Nc2cccc3cccnc23)Nc2cccc3cccnc23)c1 | – | > 100 µM | – | > 100 µM | – | > 100 µM | – | > 100 µM | – | > 100 µM | – | > 100 µM | – | – | – | > 100 µM
CCOC(=O)C#Cc1ccc(C#CC(=O)OCC)cc1 | – | – | – | > 22.1 µM | – | – | – | > 28.4 µM | – | > 100 µM | – | 15.3 µM | – | > 23.7 µM | – | > 21.3 µM
COc1cc(-c2cc(-c3nc4ccccc4[nH]3)[nH]n2)cc(OC)c1OC | 2.21 µM | 12.2 µM | – | – | 3.73 µM | 32.6 µM | 2.1 µM | 8.54 µM | 1.11 µM | 7.61 µM | 2.88 µM | 8.49 µM | 1.14 µM | 7.26 µM | 2.77 µM | 14.2 µM
O=C(Nc1ccc(Nc2ccncc2)cc1)c1ccc(Nc2ccnc3ccc([N+](=O)[O-])cc23)cc1 | – | – | > 100 µM | > 100 µM | 30.1 µM | > 100 µM | > 100 µM | > 100 µM | > 100 µM | > 100 µM | > 100 µM | > 100 µM | > 100 µM | > 100 µM | > 100 µM | > 100 µM
COc1ccc(/C=C(\C#N)c2cc(OC)c3c(c2)OCO3)cc1 | 0.251 µM | > 55.8 µM | 0.0271 µM | > 100 µM | < 0.0179 µM | 69.9 µM | 0.0101 µM | 38.1 µM | – | – | < 0.01 µM | 0.58 µM | 0.0249 µM | 2.56 µM | 0.0449 µM | 67.7 µM
CNC1NC(=O)c2ccccc2N1Cc1ccc(F)cc1 (stereo not drawn) | – | 26 µM | – | > 100 µM | – | > 100 µM | – | > 100 µM | – | > 100 µM | – | > 100 µM | – | > 100 µM | – | > 100 µM
COc1ccc(C(=O)/C=C/c2cc(C(=O)c3cc(OC)c(OC)c(OC)c3)ccc2OC)cc1 | – | – | – | – | 3.11 µM | > 100 µM | – | – | – | – | 2.93 µM | > 100 µM | 4.34 µM | > 100 µM | 3.19 µM | > 100 µM
COC[C@H]1OC(=O)c2coc3c2[C@@]1(C)C1=C(C3=O)[C@@H]2CCC(=O)[C@@]2(C)C[C@H]1OC(C)=O | – | > 72.8 µM | – | 53.8 µM | 36.8 µM | > 100 µM | – | > 100 µM | – | > 46.2 µM | – | > 100 µM | 11 µM | > 100 µM | – | > 100 µM
CCC(C)/C=C(C)/C=C/C(=O)c1c(O)c(-c2ccc(O)cc2)c[nH]c1=O (stereo not drawn) | 2.16 µM | 14.3 µM | 3.49 µM | 13.2 µM | 3.01 µM | 13 µM | 3.33 µM | 14.4 µM | 3.22 µM | 17 µM | 3.53 µM | 27.7 µM | 8.07 µM | 22.9 µM | 3.53 µM | 14.2 µM
Cc1c(Cl)cccc1NC(=O)c1sc2nc3c(cc2c1N)CCCCCC3 | 1.51 µM | > 50 µM | 0.3 µM | > 50 µM | 0.223 µM | 14.3 µM | 0.174 µM | > 50 µM | 0.223 µM | > 50 µM | 0.164 µM | 15.7 µM | 1.14 µM | 25.1 µM | 0.465 µM | > 50 µM
Cc1ccc(NC2=C(Sc3ccc(Cl)cc3)C(=O)N(Cc3ccccc3)C2=O)cc1Cl | 8.73 µM | 22.1 µM | 4.84 µM | 17.1 µM | 3.24 µM | 14 µM | 5.47 µM | 19.7 µM | 5.32 µM | 66.4 µM | 10.4 µM | 29.7 µM | 4.23 µM | 19.9 µM | 4.91 µM | 17.1 µM
O=C(O)c1ccc(NS(=O)(=O)c2cccc3cccnc23)cc1 | > 100 µM | > 100 µM | > 100 µM | > 100 µM | > 100 µM | > 100 µM | > 100 µM | > 100 µM | > 100 µM | > 100 µM | > 100 µM | > 100 µM | > 100 µM | > 100 µM | > 100 µM | > 100 µM
CCc1oc2ccccc2c1C(=O)c1cc(Br)c(O)c(Br)c1 | – | 40.1 µM | – | 55.3 µM | – | 31 µM | – | 43.6 µM | – | 53.6 µM | – | 87.2 µM | – | 50 µM | – | 31.3 µM
Cc1cccc(C[C@H](NC(=O)Nc2ccc(Cl)cc2F)C(=O)N[C@@H]2C(=O)N3C[C@H](O)C[C@H]3C(=O)N3CCCC[C@H]3C(=O)N[C@@H](C)C(=O)N3C[C@H](C)C[C@H]3C(=O)O[C@H]2C)c1 ({NH(4-Cl-2-F-phenyl)-CO}-[Phe(3-Me)][aThr][Hyp][Pip]A[Pro(4R-Me)]; ester 2-C) | 2.14 µM | 7.68 µM | 0.67 µM | 2.16 µM | 0.44 µM | 7.77 µM | 0.365 µM | 1.85 µM | 0.415 µM | 4.84 µM | 11 µM | 33.4 µM | 0.511 µM | 2.63 µM | 2.11 µM | 6.16 µM
C=C(CN1CCN(c2ccccc2F)CC1)c1ccc(C(=O)Nc2ccccc2N)cc1 | 1.32 µM | 17.3 µM | 1.53 µM | 24.4 µM | 1.4 µM | 14.7 µM | 1.21 µM | 4.01 µM | 3.84 µM | > 100 µM | – | – | 2.34 µM | 17.3 µM | 2.77 µM | > 100 µM
